# Assay results: US20080057107A1, “COMPOSITIONS FOR VAGINAL TREATMENT” (Kimberly-Clark Worldwide, Inc., priority 2004, published 2008)
# Experiments:
# [1] = test system: Normal human vaginal epithelial cells; test: Cell proliferation, CellTiter 96 Aqueous One Solution; assay type: cell-based; conditions: 10^-5 M, three days after treatment, absorbance at 490 nm, vs control medium, p<0.05
# Method: Normal human vaginal epithelial cells from Clonetics (NHVE 5164) were subcultured in basal PrEBM (Clonetics CC 3165) within 96 well plates at 37° C., 5% CO2. Cells were then exposed to medium containing mannose-6-phosphate (Sigma, M3655) at a concentration of 10^−5 M. Control groups received culture medium without mannose-6-phosphate. Cell proliferation was examined three days later and glycogen positive cells were detected five days after mannose-6-phosphate treatment. Cell proliferation was examined by using CellTiter 96 Aqueous One Solution from Promega (#TB245). Twenty μl of the reagent was added to each well. The plates were returned to cell culture incubator for 3 hours. The absorbance in each well was measured at 490 nm with a microtiter reader.
# [2] = test system: Normal human vaginal epithelial cells; test: Periodic acid Schiff (PAS) assay for glycogen-positive cells; assay type: cell-based; conditions: 10^-5 M, five days after treatment, manually counted, vs control medium
# Method: Normal human vaginal epithelial cells from Clonetics (NHVE 5164) were subcultured in basal PrEBM (Clonetics CC 3165) within 96 well plates at 37° C., 5% CO2. Cells were then exposed to medium containing mannose-6-phosphate (Sigma, M3655) at a concentration of 10^−5 M. Control groups received culture medium without mannose-6-phosphate. Cell proliferation was examined three days later and glycogen positive cells were detected five days after mannose-6-phosphate treatment.
# A periodic acid Schiff (PAS) assay was used to detect glycogen levels. Before the assay, cells were washed with PBS and fixed with a 10 vol % Formalin/ethanol solution for 1 hour at room temperature, followed by continuous rinsing with deionized (DI) water for 1 minute. A Harleco® PAS Assay Kit (from EM Science 64945/43) was used for glycogen detection. The basic principle is that the hydroxy groups on the glycogen units were first oxidized into aldehyde groups by periodic acid, and the aldehyde groups reacted with Schiff's agent to produce a red colorant. The specific assay operations were all done at room temperature as follows: • 1. Periodic acid reagent was added to the well/chamber and allowed to stand for 10 minutes. • 2. […] The numbers of glycogen-stained positive cells were manually counted under microscope. The data was analyzed by student's t test, and p<0.05 was considered significant. […]
compound,measurement,setting,value
O=C[C@@H](O)[C@@H](O)[C@H](O)[C@H](O)COP(=O)(O)O [mannose-6-phosphate],vaginal cell proliferation,[1],significantly (p<0.05) increased
same,number of glycogen-positive cells,[2],significantly higher
